Experimental data published in patent US8258114B2, “Modulation of glucose-6-phosphatase translocase expression” (Isis Pharmaceuticals, Inc., priority 2004, dated 2012).
Oligonucleotides are written 5' to 3', each unit as a sugar letter and its base; * is a phosphorothioate linkage, no mark a phosphodiester; rarer units and linkages stand in square brackets, end groups in braces. Plain capitals give the bases only. e = 2'-O-(2-methoxyethyl) (MOE); [5mC] = 5-methylcytosine; d = 2'-deoxy (DNA)

Tested on: mouse glucose-6-phosphatase translocase mRNA
Test: Antisense inhibition of mouse glucose-6-phosphatase translocase mRNA in primary mouse hepatocytes, 150 nM, LIPOFECTIN (Table 22)
Assay type: cell-based
Details: real-time PCR
Procedure: Primary mouse hepatocytes were prepared from CD-1 mice purchased from Charles River Labs. Primary mouse hepatocytes were routinely cultured in Hepatocyte Attachment Media supplemented with 10% fetal bovine serum (Invitrogen Life Technologies, Carlsbad, Calif.), 250 nM dexamethasone, and 10 nM bovine insulin (Sigma-Aldrich, St. Louis, Mo.). Cells were seeded into 96-well plates (Falcon-Primaria #353872, BD Biosciences, Bedford, Mass.) at a density of approximately 4,000-6,000 cells/well for use in oligomeric compound transfection experiments.
When cells reached 65-75% confluency, they were treated with oligonucleotide. Oligonucleotide was mixed with LIPOFECTIN™ Invitrogen Life Technologies, Carlsbad, Calif.) in Opti-MEM™-1 reduced serum medium (Invitrogen Life Technologies, Carlsbad, Calif.) to achieve the desired concentration of oligonucleotide and a LIPOFECTIN™ concentration of 2.5 or 3 μg/mL per 100 nM oligonucleotide. This transfection mixture was incubated at room temperature for approximately 0.5 hours. For cells grown in 96-well plates, wells were washed once with 100 μL OPTI-MEM™-1 and then treated with 130 μL of the transfection mixture. Cells grown in 24-well plates or other standard tissue culture plates are treated similarly, using appropriate volumes of medium and oligonucleotide. Cells are treated and data are obtained in duplicate or triplicate. After approximately 4-7 hours of treatment at 37° C., the medium containing the transfection mixture was replaced with fresh culture medium. Cells were harvested 16-24 hours after oligonucleotide treatment.
Quantitation of glucose 6-phosphatase translocase mRNA levels was accomplished by real-time quantitative PCR using the ABI PRISM™ 7600, 7700, or 7900 Sequence Detection System (PE-Applied Biosystems, Foster City, Calif.) according to manufacturer's instructions.
Prior to quantitative PCR analysis, primer-probe sets specific to the target gene being measured were evaluated for their ability to be “multiplexed” with a GAPDH amplification reaction. After isolation the RNA is subjected to sequential reverse transcriptase (RT) reaction and real-time PCR, both of which are performed in the same well. RT and PCR reagents were obtained from Invitrogen Life Technologies (Carlsbad, Calif.). […] The RT reaction was carried out by incubation for 30 minutes at 48° C. Following a 10 minute incubation at 95° C. to activate the PLATINUM® Taq, 40 cycles of a two-step PCR protocol were carried out: 95° C. for 15 seconds (denaturation) followed by 60° C. for 1.5 minutes (annealing/extension).
Gene target quantities obtained by RT, real-time PCR were normalized using either the expression level of GAPDH, a gene whose expression is constant, or by quantifying total RNA using RiboGreen™ (Molecular Probes, Inc. Eugene, Oreg.). GAPDH expression was quantified by RT, real-time PCR, by being run simultaneously with the target, multiplexing, or separately. Total RNA was quantified using RiboGreen™ RNA quantification reagent (Molecular Probes, Inc. Eugene, Oreg.).
A series of oligomeric compounds was designed to target different regions of mouse glucose-6-phosphatase translocase, using published sequences cited in Table 1. All compounds in Table 22 are chimeric oligonucleotides (“gapmers”) 20 nucleotides in length, composed of a central “gap” region consisting of 10 2′-deoxynucleotides, which is flanked on both sides (5′ and 3′) by five-nucleotide “wings”. The wings are composed of 2′-O-(2-methoxyethyl) nucleotides, also known as 2′-MOE nucleotides. The internucleoside (backbone) linkages are phosphorothioate throughout the oligonucleotide. All cytidine residues are 5-methylcytidines. The compounds were analyzed for their effect on gene target mRNA levels by quantitative real-time PCR as described in other examples herein, using the following primer-probe set designed to hybridize to mouse glucose-6-phosphatase translocase: • forward primer: […]

| Substance | % Inhib of mouse glucose-6-phosphatase translocase mRNA levels |
| --- | --- |
| 145691 (antisense eT*eG*eT*e[5mC]*eT*dG*dA*d[5mC]*dA*dG*dG*dT*dA*dA*d[5mC]*e[5mC]*eA*eG*e[5mC]*eT) [compound 145691] | 30% |
| 145692 (antisense eG*e[5mC]*eT*eG*e[5mC]*d[5mC]*dA*dT*d[5mC]*d[5mC]*d[5mC]*dA*dG*d[5mC]*d[5mC]*eA*eT*e[5mC]*eA*eT) [compound 145692] | 65% |
| 145693 (eG*eG*eA*eA*eG*dA*dG*dA*dT*dA*d[5mC]*dG*dT*dG*dG*eA*eT*eG*e[5mC]*eT; antisense) [compound 145693] | 0% |
| 145694 (eA*eG*eT*e[5mC]*eA*d[5mC]*dT*dG*dG*dT*d[5mC]*dA*d[5mC]*d[5mC]*dG*eT*eT*eA*e[5mC]*eT; antisense) [compound 145694] | 23% |
| 145695 (e[5mC]*eA*eA*eT*eG*dG*dG*dA*d[5mC]*d[5mC]*dA*dT*dA*dA*dG*eA*eA*eG*eA*eG; antisense) [compound 145695] | 24% |
| 145696 (e[5mC]*eT*e[5mC]*e[5mC]*eA*dA*dA*d[5mC]*dA*dA*dG*dG*d[5mC]*dA*dA*eT*eG*eG*eG*eA; antisense) [compound 145696] | 37% |
| 145697 (eT*eG*eG*e[5mC]*eT*dA*dT*dG*dA*d[5mC]*dT*d[5mC]*d[5mC]*dA*dA*eA*e[5mC]*eA*eA*eG; antisense) [compound 145697] | 45% |
| 145698 (e[5mC]*e[5mC]*eA*e[5mC]*eA*dA*dT*dA*dG*d[5mC]*dA*dT*dG*dA*dG*eA*eG*eG*eT*eT; antisense) [compound 145698] | 33% |
| 145699 (eT*e[5mC]*e[5mC]*eA*e[5mC]*d[5mC]*d[5mC]*dA*d[5mC]*dA*dT*dT*dG*dG*d[5mC]*e[5mC]*eA*eT*eA*eA; antisense) [compound 145699] | 41% |
| 145701 (eA*eG*eT*eG*e[5mC]*dT*dT*dG*dG*d[5mC]*dA*dA*dT*dG*dG*eT*eG*e[5mC]*eT*eG; antisense) [compound 145701] | 54% |
| 145703 (eA*e[5mC]*e[5mC]*eA*e[5mC]*dT*dT*d[5mC]*dT*dG*d[5mC]*d[5mC]*dA*d[5mC]*d[5mC]*e[5mC]*eA*eG*eA*eA; antisense) [compound 145703] | 42% |
| 145704 (eG*e[5mC]*eT*eG*eG*d[5mC]*dT*d[5mC]*d[5mC]*dA*d[5mC]*dA*dA*dA*d[5mC]*e[5mC]*eA*e[5mC]*eT*eT; antisense) [compound 145704] | 54% |
| 145705 (e[5mC]*eT*eT*eG*eG*dT*dG*d[5mC]*dG*dG*dA*dT*dA*dT*dT*eT*e[5mC]*eG*eA*eA; antisense) [compound 145705] | 49% |
| 145707 (eT*eG*eG*eA*eT*dA*d[5mC]*dT*d[5mC]*dG*dG*d[5mC]*d[5mC]*d[5mC]*dA*eT*e[5mC]*eT*eT*eG; antisense) [compound 145707] | 56% |
| 145708 (eG*eG*eA*e[5mC]*eT*d[5mC]*dG*dA*dT*dT*d[5mC]*dA*d[5mC]*dT*d[5mC]*eT*e[5mC]*e[5mC]*e[5mC]*eT; antisense) [compound 145708] | 48% |
| 145709 (eG*eG*eG*eA*eT*dG*d[5mC]*dT*d[5mC]*d[5mC]*dA*dT*dA*dG*d[5mC]*eG*eA*eG*eG*eA; antisense) [compound 145709] | 14% |

| Substance | % Inhib of mouse glucose-6-phosphatase translocase mRNA levels |
| --- | --- |
| 145710 (e[5mC]*e[5mC]*eT*eG*e[5mC]*d[5mC]*dA*dG*dT*dA*dA*dG*dG*d[5mC]*dT*eG*e[5mC]*eA*eG*eT; antisense) [compound 145710] | 13% |
| 145711 (eG*eA*eG*eA*eG*dA*d[5mC]*dA*dG*dT*dG*dG*dA*dG*dA*e[5mC]*eA*e[5mC]*eA*eG; antisense) [compound 145711] | 33% |
| 145712 (eT*eG*eG*eA*eG*dG*dT*dT*d[5mC]*dA*dG*dA*dG*dA*dG*eA*e[5mC]*eA*eG*eT; antisense) [compound 145712] | 42% |
| 145713 (eG*eT*eA*eA*e[5mC]*dT*dT*dG*d[5mC]*dA*dG*d[5mC]*dA*d[5mC]*d[5mC]*eA*eT*eG*eG*eA; antisense) [compound 145713] | 63% |
| 145714 (eG*e[5mC]*e[5mC]*eA*e[5mC]*dT*dG*dG*dT*dA*dA*d[5mC]*dT*dT*dG*e[5mC]*eA*eG*e[5mC]*eA; antisense) [compound 145714] | 66% |
| 145715 (eA*eG*eG*eA*eG*dT*dT*dG*d[5mC]*d[5mC]*dT*dG*dT*d[5mC]*dT*eG*e[5mC]*e[5mC]*eA*eG; antisense) [compound 145715] | 50% |
| 145716 (e[5mC]*e[5mC]*e[5mC]*eT*eG*dA*dA*dT*dT*d[5mC]*dA*dG*dG*dA*dG*eT*eT*eG*e[5mC]*e[5mC]; antisense) [compound 145716] | 52% |
| 145717 (eT*eA*e[5mC]*eT*e[5mC]*dA*d[5mC]*dT*dA*dG*dG*dA*dG*dA*dT*e[5mC]*eA*eG*eG*eA; antisense) [compound 145717] | 52% |
| 145718 (e[5mC]*eA*eA*eT*eT*dT*dT*dG*d[5mC]*d[5mC]*d[5mC]*d[5mC]*d[5mC]*dT*dG*e[5mC]*e[5mC]*eA*eA*eG; antisense) [compound 145718] | 26% |
| 145719 (eG*eA*eG*eT*eG*dG*dT*dG*dG*dA*d[5mC]*dT*d[5mC]*d[5mC]*dT*e[5mC]*eT*e[5mC]*e[5mC]*eT; antisense) [compound 145719] | 47% |
| 145720 (TCAAATCTAGCTTTATTCGA; 2'-MOE wings and deoxy gap, wing lengths and linkages not given here) [compound 145720] | 11% |
| 145721 (eG*eG*e[5mC]*eT*eG*dT*dG*dG*dG*dT*d[5mC]*d[5mC]*d[5mC]*d[5mC]*dG*eA*eA*e[5mC]*eG*eA; antisense) [compound 145721] | 0% |
| 145722 (e[5mC]*eA*eG*eT*eG*dT*d[5mC]*d[5mC]*d[5mC]*dT*dG*d[5mC]*dG*dA*d[5mC]*eA*eT*e[5mC]*eA*eG; antisense) [compound 145722] | 8% |
| 145723 (eG*e[5mC]*e[5mC]*eG*e[5mC]*d[5mC]*dT*dT*d[5mC]*dT*dG*dG*dA*d[5mC]*dA*eA*eT*e[5mC]*eA*eT; antisense) [compound 145723] | 0% |
| 145724 (eG*eG*e[5mC]*eT*e[5mC]*dT*dT*dT*dA*dT*dA*dG*d[5mC]*d[5mC]*dG*e[5mC]*e[5mC]*eT*eT*e[5mC]; antisense) [compound 145724] | 0% |
